# Tested on: 624824-186-R-J3-PDC multicell spheroids, viability
# Test: Anticancer human tumor 624824-186-R-J3-PDC patient-derived colon adenocarcinoma cell line growth inhibition [PI3K]
# Details: for IC50: curve of first compound; for viability, T/C: stronger effect = lower value
# Procedure, shortened: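 Complex 3D spheroids (cancer cells + endothelial HUVEC + mesenchymal stem cells); drug pairs of targeted agent x inavolisib/alpelisib/duvelisib/copanlisib; half-log series from ~Cmax, max 10 microM if Cmax unknown; endpoint viability.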
# [1] = second compound 0.00316 µM, first compound 0.0316 µM
# [2] = second compound 0.00316 µM, first compound 0.1 µM
# [3] = second compound 0.00316 µM, first compound 0.316 µM
# [4] = second compound 0.00316 µM, first compound 1 µM
# [5] = second compound 0.00316 µM, first compound 3.16 µM
# [6] = second compound 0.00316 µM, first compound 10 µM
# [7] = second compound 0.01 µM, first compound 0.0316 µM
# [8] = second compound 0.01 µM, first compound 0.1 µM
# [9] = second compound 0.01 µM, first compound 0.316 µM
# [10] = second compound 0.01 µM, first compound 1 µM
# [11] = second compound 0.01 µM, first compound 3.16 µM
# [12] = second compound 0.01 µM, first compound 10 µM
# [13] = second compound 0.0316 µM, first compound 0.0316 µM
# [14] = second compound 0.0316 µM, first compound 0.1 µM
# [15] = second compound 0.0316 µM, first compound 0.316 µM
# [16] = second compound 0.0316 µM, first compound 1 µM
# [17] = second compound 0.0316 µM, first compound 3.16 µM
# [18] = second compound 0.0316 µM, first compound 10 µM
# [19] = second compound 0.1 µM, first compound 0.0316 µM
# [20] = second compound 0.1 µM, first compound 0.1 µM
# [21] = second compound 0.1 µM, first compound 0.316 µM
# [22] = second compound 0.1 µM, first compound 1 µM
# [23] = second compound 0.1 µM, first compound 3.16 µM
# [24] = second compound 0.1 µM, first compound 10 µM
# [25] = second compound 0.316 µM, first compound 0.0316 µM
# [26] = second compound 0.316 µM, first compound 0.1 µM
# [27] = second compound 0.316 µM, first compound 0.316 µM
# [28] = second compound 0.316 µM, first compound 1 µM
# [29] = second compound 0.316 µM, first compound 3.16 µM
# [30] = second compound 0.316 µM, first compound 10 µM
# [31] = second compound 1 µM, first compound 0.0316 µM
# [32] = second compound 1 µM, first compound 0.1 µM
# [33] = second compound 1 µM, first compound 0.316 µM
# [34] = second compound 1 µM, first compound 1 µM
# [35] = second compound 1 µM, first compound 3.16 µM
# [36] = second compound 1 µM, first compound 10 µM
# 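Note: spheroids exposed to agents for seven days before luminescence read.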
# 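Throughout, for viability, T/C: luminescent signal used as a stand-in for spheroid viability; percent viability relative to DMSO vehicle control wells taken as 100%.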
smiles,measurement,setting,value
CC1(C)CCC(CN2CCN(c3ccc(C(=O)NS(=O)(=O)c4ccc(NCC5CCOCC5)c([N+](=O)[O-])c4)c(Oc4cnc5[nH]ccc5c4)c3)CC2)=C(c2ccc(Cl)cc2)C1 + CC(Nc1ccc2c(c1)OCCn1cc(N3C(=O)OCC3C(F)F)nc1-2)C(N)=O,IC50,second compound 0.00316 µM,9.41 µM
same,IC50,second compound 0.01 µM,8.77 µM
same,IC50,second compound 0.0316 µM,9.64 µM
same,IC50,second compound 0.1 µM,9.37 µM
same,IC50,second compound 0.316 µM,> 10 µM
same,IC50,second compound 1 µM,9.12 µM
same,"viability, T/C",[1],104%
same,"viability, T/C",[2],88.6%
same,"viability, T/C",[3],102%
same,"viability, T/C",[4],90.9%
same,"viability, T/C",[5],112%
same,"viability, T/C",[6],47.3%
same,"viability, T/C",[7],105%
same,"viability, T/C",[8],92%
same,"viability, T/C",[9],99.5%
same,"viability, T/C",[10],106%
same,"viability, T/C",[11],114%
same,"viability, T/C",[12],43.2%
same,"viability, T/C",[13],100%
same,"viability, T/C",[14],105%
same,"viability, T/C",[15],89.4%
same,"viability, T/C",[16],99%
same,"viability, T/C",[17],117%
same,"viability, T/C",[18],48.3%
same,"viability, T/C",[19],88.7%
same,"viability, T/C",[20],99.9%
same,"viability, T/C",[21],90.9%
same,"viability, T/C",[22],109%
same,"viability, T/C",[23],102%
same,"viability, T/C",[24],47.1%
same,"viability, T/C",[25],98.5%
same,"viability, T/C",[26],95.3%
same,"viability, T/C",[27],99.2%
same,"viability, T/C",[28],86.3%
same,"viability, T/C",[29],89%
same,"viability, T/C",[30],53.6%
same,"viability, T/C",[31],82.7%
same,"viability, T/C",[32],85.5%
same,"viability, T/C",[33],85.7%
same,"viability, T/C",[34],81.4%
same,"viability, T/C",[35],70.2%
same,"viability, T/C",[36],48.2%
C#Cc1c(F)ccc2cc(O)cc(-c3ncc4c(N5CC6CCC(C5)N6)nc(OCC56CCCN5CC(F)C6)nc4c3F)c12 (centres undefined) + COc1c(OCCCN2CCOCC2)ccc2c3n(c(=NC(=O)c4cnc(N)nc4)nc12)CCN3,IC50,second compound 0.00316 µM,> 10 µM
same,IC50,second compound 0.01 µM,> 10 µM
same,IC50,second compound 0.0316 µM,> 10 µM
same,IC50,second compound 0.1 µM,> 10 µM
same,IC50,second compound 0.316 µM,0.493 µM
same,IC50,second compound 1 µM,< 0.0316 µM
same,"viability, T/C",[1],104%
same,"viability, T/C",[2],116%
same,"viability, T/C",[3],114%
same,"viability, T/C",[4],103%
same,"viability, T/C",[5],112%
same,"viability, T/C",[6],111%
same,"viability, T/C",[7],103%
same,"viability, T/C",[8],101%
same,"viability, T/C",[9],102%
same,"viability, T/C",[10],114%
same,"viability, T/C",[11],103%
same,"viability, T/C",[12],103%
same,"viability, T/C",[13],92%
same,"viability, T/C",[14],95.5%
same,"viability, T/C",[15],103%
same,"viability, T/C",[16],93%
same,"viability, T/C",[17],93%
same,"viability, T/C",[18],90.9%
same,"viability, T/C",[19],87.1%
same,"viability, T/C",[20],73.7%
same,"viability, T/C",[21],78.5%
same,"viability, T/C",[22],78.2%
same,"viability, T/C",[23],73.6%
same,"viability, T/C",[24],63.5%
same,"viability, T/C",[25],54.7%
same,"viability, T/C",[26],49.9%
same,"viability, T/C",[27],54.1%
same,"viability, T/C",[28],46.4%
same,"viability, T/C",[29],44.8%
same,"viability, T/C",[30],37.6%
same,"viability, T/C",[31],28.4%
same,"viability, T/C",[32],27.7%
same,"viability, T/C",[33],26.9%
same,"viability, T/C",[34],23.5%
same,"viability, T/C",[35],24.6%
same,"viability, T/C",[36],17.1%

# — PubChem BioAssay AID1963977 (Molecular Pharmacology Branch, DTP, NCI, 2024)
